From patent US9029542B2 (priority 2011, dated 2015)
“And” between values parts separate entries of the source, which are not always exact repeats. Equal values may be shown once. Read-outs that look alike come from different tables or passages of the source.

Columns and labels:
[1] = system: cockspur grass; experiment: whole plant or invertebrate; assay type: in vivo; conditions: Echinochloa crus-galli; for pest or weed control at 10 µg/g / pest or weed control at 100 µg/g: 120 h
[2] = system: rape; experiment: whole plant or invertebrate; assay type: in vivo; conditions: for plant injury at 10 µg/g / plant injury at 100 µg/g: 120 h
[3] = system: Capsella bursa-pastoris; experiment: whole plant or invertebrate; assay type: in vivo; conditions: 600 h, read-out: weed clearing activity, Capsella bursa-pastoris Postemergence
[4] = system: Amaranthus retroflexus; experiment: whole plant or invertebrate; assay type: in vivo
[5] = system: Eclipta prostrata; experiment: whole plant or invertebrate; assay type: in vivo
[6] = system: weeds of the expanded weed killing spectrum; conditions: in vivo
[7] = system: rice; conditions: in vivo
[8] = system: corn; conditions: in vivo
[9] = system: cotton; conditions: in vivo
[10] = system: soybean; conditions: in vivo
[11] = system: rape; conditions: in vivo
[12] = system: Wheat; conditions: in vivo
[13] = system: Sorghum; experiment: whole plant or invertebrate; assay type: in vivo
[14] = system: Wheat; experiment: whole plant or invertebrate; assay type: in vivo; conditions: Triticum aestivum
[15] = system: Radish; experiment: whole plant or invertebrate; assay type: in vivo; conditions: Raphanus sativus
[16] = system: Cucumber; experiment: whole plant or invertebrate; assay type: in vivo; conditions: Cucumis sativus
[17] = system: Abutilon theophrasti; experiment: whole plant or invertebrate; assay type: in vivo; conditions: for pest or weed control at 150 g/ha: Abutilon theophrasti, 600 h, read-out: Postemergence weed clearing activity, Abutilon theophrasti
[18] = read-out: weed clearing activity, cockspur grass Root (Effect)
[19] = read-out: weed clearing activity, cockspur grass Stem (Effect)
[20] = read-out: weed clearing activity, rape Root (Effect)
[21] = read-out: weed clearing activity, rape Stem (Effect)
[22] = Amaranthus retroflexus, 600 h, read-out: weed clearing activity, Amaranthus retroflexus Postemergence
[23] = Eclipta prostrata, 600 h, read-out: weed clearing activity, Eclipta prostrata Postemergence
[24] = read-out: inhibitory activity, Cockspur grass Root
[25] = read-out: inhibitory activity, Cockspur grass Stem
[26] = read-out: inhibitory activity, Rape Root
[27] = read-out: inhibitory activity, Rape Stem
[28] = read-out: inhibitory activity, Sorghum Root
[29] = read-out: inhibitory activity, Sorghum Stem
[30] = read-out: inhibitory activity, Wheat Root
[31] = read-out: inhibitory activity, Wheat Stem
[32] = read-out: inhibitory activity, Radish Root
[33] = read-out: inhibitory activity, Radish Stem
[34] = read-out: inhibitory activity, Cucumber Root
[35] = read-out: inhibitory activity, Cucumber Stem

Structure (SMILES): CC(OC(=O)COc1ccc(Cl)cc1Cl)P1(=O)OCC(C)(C)CO1 (centres unmarked) [Compound 11, 2-(2,4-dichlorophenoxyethylacyloxy)(methyl)methyl-5,5-dimethyl-1,3,2-dioxaphosphorinan-2-one phosphonate]
- pest or weed control at 10 µg/g [1, 18]: 100%
- pest or weed control at 100 µg/g [1, 18]: 100%
- pest or weed control at 10 µg/g [1, 19]: 55%
- pest or weed control at 100 µg/g [1, 19]: 57%
- plant injury at 10 µg/g [2, 20]: 99%
- plant injury at 100 µg/g [2, 20]: 99%
- plant injury at 10 µg/g [2, 21]: 88%
- plant injury at 100 µg/g [2, 21]: 92%
- pest or weed control at 37.5 g/ha [3]: 90%
- pest or weed control at 75 g/ha [3]: 100%
- pest or weed control at 150 g/ha [3]: 100%
- pest or weed control at 37.5 g/ha [4, 22]: 70%
- pest or weed control at 75 g/ha [4, 22]: 90%
- pest or weed control at 150 g/ha [4, 22]: 80%
- weed clearing activity, Amaranthus retroflexus Postemergence (※) ([4]; in vivo): 100^※ %
- weed clearing activity, Amaranthus retroflexus Postemergence, value in parentheses ([4]; in vivo): 90(70) %
- pest or weed control at 37.5 g/ha [5, 23]: 50%
- pest or weed control at 75 g/ha [5, 23]: 85%
- pest or weed control at 150 g/ha [5, 23]: 70%
- weed clearing activity, Eclipta prostrata Postemergence (※) ([5]; in vivo): 90^※ %
- weed clearing activity, Eclipta prostrata Postemergence, value in parentheses ([5]; in vivo): 85(70) %
- Activity of expanded weed killing spectrum, Abutilon theophrasti [6]: 70% and 75%
- Activity of expanded weed killing spectrum, Alligator alternanthera [6]: 60%
- Activity of expanded weed killing spectrum, Cayenne pepper [6]: 70% and 75%
- Activity of expanded weed killing spectrum, Cucumis sativus [6]: 40% and 50%
- Activity of expanded weed killing spectrum, Pakchoi [6]: 85%
- Activity of expanded weed killing spectrum, Pigweed [6]: 85%
- Activity of expanded weed killing spectrum, Tomato [6]: 70% and 75%
- Inhibitory activity on the crops, Rice [7]: 10
- Inhibitory activity on the crops, Corn [8]: 0
- Inhibitory activity on the crops, Cotton [9]: 30
- Inhibitory activity on the crops, Soybean [10]: 30
- Inhibitory activity on the crops, Rape [11]: 40
- Inhibitory activity on the crops, Wheat [12]: 0

Structure (SMILES): Cc1cc(Cl)ccc1OCC(=O)OC(C)P1(=O)OCC(C)(C)CO1 (centres unmarked) [Compound 34, 2-(2-methyl-4-chlorophenoxyethylacyloxy)(methyl)methyl-5,5-dimethyl-1,3,2-dioxaphosphorinan-2-one phosphonate]
- inhibition at 100 µg/mL [1, 24]: 70%
- inhibition at 100 µg/mL [1, 25]: 80%
- inhibition at 100 µg/mL [2, 26]: 100%
- inhibition at 100 µg/mL [2, 27]: 100%
- inhibition at 100 µg/mL [13, 28]: 100%
- inhibition at 100 µg/mL [13, 29]: 100%
- inhibition at 100 µg/mL [14, 30]: 90%
- inhibition at 100 µg/mL [14, 31]: 60%
- inhibition at 100 µg/mL [15, 32]: 100%
- inhibition at 100 µg/mL [15, 33]: 100%
- inhibition at 100 µg/mL [16, 34]: 100%
- inhibition at 100 µg/mL [16, 35]: 100%
- pest or weed control at 150 g/ha [3]: 90%
- pest or weed control at 150 g/ha [4, 22]: 90%
- pest or weed control at 150 g/ha [5, 23]: 80%
- Weed clearing activity, Eclipta prostrata, Postemergence ([5]; in vivo): 85%
- pest or weed control at 150 g/ha [17]: 75%
- Activity of expanded weed killing spectrum, Alligator alternanthera [6]: 60% and 70%
- Activity of expanded weed killing spectrum, Ammania [6]: 50% and 60%
- Activity of expanded weed killing spectrum, Cabbage [6]: 70%
- Activity of expanded weed killing spectrum, Capsella bursa-pastoris [6]: 85%
- Activity of expanded weed killing spectrum, Cayenne pepper [6]: 70%
- Activity of expanded weed killing spectrum, Cucumis sativus [6]: 60% and 70%
- Activity of expanded weed killing spectrum, Monochoria [6]: 30% and 60%
- Activity of expanded weed killing spectrum, Pakchoi [6]: 70%
- Activity of expanded weed killing spectrum, Pigweed [6]: 70% and 75%
- Activity of expanded weed killing spectrum, Rape [6]: 85%
- Activity of expanded weed killing spectrum, Rumex acetosa [6]: 70% and 75%
- Activity of expanded weed killing spectrum, Tomato [6]: 60% and 70%
- Activity of expanded weed killing spectrum, Vicia cracca [6]: 70%

Structure (SMILES): CC(OC(=O)COc1ccc(F)cc1Cl)P1(=O)OCC(C)(C)CO1 (centres unmarked) [Compound 37, 2-(2-chloro-4-fluorphenoxyethylacyloxy)(methyl)methyl-5,5-dimethyl-1,3,2-dioxaphosphorinan-2-one phosphonate]
- inhibition at 100 µg/mL [1, 24]: 0%
- inhibition at 100 µg/mL [1, 25]: 0%
- inhibition at 100 µg/mL [2, 26]: 100%
- inhibition at 100 µg/mL [2, 27]: 100%
- inhibition at 100 µg/mL [13, 28]: 0%
- inhibition at 100 µg/mL [13, 29]: 0%
- inhibition at 100 µg/mL [14, 30]: 60%
- inhibition at 100 µg/mL [14, 31]: 30%
- inhibition at 100 µg/mL [15, 32]: 90%
- inhibition at 100 µg/mL [15, 33]: 30%
- inhibition at 100 µg/mL [16, 34]: 60%
- inhibition at 100 µg/mL [16, 35]: 30%
- pest or weed control at 150 g/ha [3]: 95%
- pest or weed control at 150 g/ha [4, 22]: 90%
- Weed clearing activity, Amaranthus retroflexus, Postemergence ([4]; in vivo): 60%
- pest or weed control at 150 g/ha [5, 23]: 85%
- Weed clearing activity, Eclipta prostrata, Postemergence ([5]; in vivo): 60% and 85%
- pest or weed control at 150 g/ha [17]: 90%
- Weed clearing activity, Abutilon theophrasti, Postemergence ([17]; in vivo): 70%
- Activity of expanded weed killing spectrum, Alligator alternanthera [6]: 60%
- Activity of expanded weed killing spectrum, Ammania [6]: 60%
- Activity of expanded weed killing spectrum, Cabbage [6]: 70%
- Activity of expanded weed killing spectrum, Cayenne pepper [6]: 60% and 75%
- Activity of expanded weed killing spectrum, Cucumis sativus [6]: 60% and 70%
- Activity of expanded weed killing spectrum, Eclipta prostrata [6]: 60%
- Activity of expanded weed killing spectrum, Monochoria [6]: 50%
- Activity of expanded weed killing spectrum, Rape [6]: 70% and 75%
- Activity of expanded weed killing spectrum, Rumex acetosa [6]: 70% and 75%
- Activity of expanded weed killing spectrum, Vicia cracca [6]: 70%

Structure (SMILES): CC(Oc1ccc(F)cc1)C(=O)OC(C)P1(=O)OCC(C)(C)CO1 (centres unmarked) [Compound 44, 2-(4-fluorphenoxyisopropylacyloxy)(methyl)methyl-5,5-dimethyl-1,3,2-dioxaphosphorinan-2-one phosphonate]
- inhibition at 100 µg/mL [1, 24]: 0%
- inhibition at 100 µg/mL [1, 25]: 0%
- inhibition at 100 µg/mL [2, 26]: 100%
- inhibition at 100 µg/mL [2, 27]: 30%
- inhibition at 100 µg/mL [13, 28]: 0%
- inhibition at 100 µg/mL [13, 29]: 0%
- inhibition at 100 µg/mL [14, 30]: 0%
- inhibition at 100 µg/mL [14, 31]: 0%
- inhibition at 100 µg/mL [15, 32]: 80%
- inhibition at 100 µg/mL [15, 33]: 30%
- inhibition at 100 µg/mL [16, 34]: 30%
- inhibition at 100 µg/mL [16, 35]: 30%
- pest or weed control at 150 g/ha [3]: 70%
- pest or weed control at 150 g/ha [4, 22]: 50%
- pest or weed control at 150 g/ha [5, 23]: 60%
- pest or weed control at 150 g/ha [17]: 60%

Structure (SMILES): CC(OC(=O)COc1cccc(C(F)(F)F)c1)P1(=O)OCC(C)(C)CO1 (centres unmarked) [Compound 45, 2-(3-trifluormethylphenoxyethylacyloxy)(methyl)methyl-5,5-dimethyl-1,3,2-dioxaphosphorinan-2-one phosphonate]
- inhibition at 100 µg/mL [1, 24]: 0%
- inhibition at 100 µg/mL [1, 25]: 0%
- inhibition at 100 µg/mL [2, 26]: 85%
- inhibition at 100 µg/mL [2, 27]: 30%
- inhibition at 100 µg/mL [13, 28]: 70%
- inhibition at 100 µg/mL [13, 29]: 60%
- inhibition at 100 µg/mL [14, 30]: 80%
- inhibition at 100 µg/mL [14, 31]: 60%
- inhibition at 100 µg/mL [15, 32]: 90%
- inhibition at 100 µg/mL [15, 33]: 60%
- inhibition at 100 µg/mL [16, 34]: 98%
- inhibition at 100 µg/mL [16, 35]: 50%
- pest or weed control at 150 g/ha [3]: 85%
- pest or weed control at 150 g/ha [4, 22]: 50%
- pest or weed control at 150 g/ha [5, 23]: 50%
- pest or weed control at 150 g/ha [17]: 75%
